Here are results for one compound from PMC9577195, “Pharmacokinetics, bioavailability, and plasma protein binding study of glytrexate, a novel multitarget antifolate” (Frontiers in Pharmacology, 2022).

Bounds are passed on as bounds.

Holding throughout (assay type): in vitro ADME
Data set [1] is described as follows: Plasma protein binding rate by ultrafiltration, rat plasma. On the procedure: (§1) The glytrexate stock solution was diluted with 20% methanol (1% formic acid) to three mass concentrations of 50, 100, and 200 μg/ml for use. One hundred microliters of glytrexate solution of the corresponding concentration (3 duplicates each in parallel) was added to 900 μl of rat/human plasma, vortexed and mixed well to prepare plasma samples with plasma concentrations of 5, 10, and 20 μg/ml.
(§2) The plasma sample was placed in a constant temperature water bath at 37°C for a certain period to obtain an incubation solution. After the incubation solution was removed, it was placed on ice to maintain a low temperature, transferred to a filtrate tube (500 μl), and placed in a low-temperature refrigerated centrifuge at 4°C and 14,000 rpm for 20 min to obtain filtrate.
(§3) The test tube containing the drug concentration was incubated in a constant temperature water bath at 37°C. Each sample was obtained at 10 min, 30 min, 60 min, 120 min, 240 min, and 360 min and the drug concentration before and after ultrafiltration was determined. The plasma protein binding rate (%) = [(Cincubation solution-CUltrafiltrate)/Cincubation solution]×100%. GraphPad Prism 8 software was used to perform a one-way analysis of variance on the plasma protein binding rate of glytrexate between different mass concentrations in the same species.

Data set [2] is described as follows: Plasma protein binding rate by ultrafiltration, human plasma. How it is done:
as §1, §2, §3

The nature of data set [3]: Metabolic stability in human liver microsomes. Conditions: 37°C. How it is done:
The test tube containing the drug concentration was incubated in a constant temperature water bath at 37°C. Each sample was obtained at 0, 0.5, 1.0, 1.5, 2.0, and 3.0 h, and the drug concentration was measured.
The metabolic stability of glytrexate was determined by incubation with human liver microsomes at 37°C. The reaction in the incubation system containing 10 μl of glytrexate (1 mg/ml), 50 μl of liver microsomes (1 mg/ml), and 10 μl of PBS (pH 7.4) was initiated by the addition of 30 μl of NADPH after 5 min of preincubation. The total incubation volume was 100 μl. The reaction was terminated at predefined time points (0, 0.5, 1, 1.5, 2, and 3 h). The incubations were conducted in triplicate.
Fifty microliters of the above solution was accurately drawn at different incubation time points, and 155 μl of ice-cold methanol (1% formic acid) and 5 μl of IS solution were added. The mixture was vortexed for 60 s and centrifuged at 14,000 rpm for 10 min. […] An appropriate amount of the supernatant was placed into the sample vial, and analyzed. […]
All samples were analyzed using the established LC‒MS/MS method, and MultiQuant 3.0 software was used for data processing. The glytrexate concentration at each time point was calculated, the remaining percentage was calculated, and the concentration change trend was analyzed.
For orientation: Microsomes from liver hold many membrane-bound enzymes, among them those of drug oxidation.

The nature of data set [4]: Stability on incubation in artificial gastrointestinal fluids at 37°C. Conditions: up to 3 h, 100 μg/ml. On the procedure: Blank artificial gastric fluid: hydrochloric acid (2.75 mol/L, 16.4 ml) was diluted with 800 ml of water, adjusted to the pH 1.3 with 0.1 mol/L hydrochloric acid solution, diluted with water and diluted to 1000 ml.
Artificial gastric fluid: hydrochloric acid (2.75 mol/L, 16.4 ml) was diluted with 800 ml of water, and then 10 g of pepsin was added and shaken well until dissolved. The pH was adjusted to 1.3 with 0.1 mol/L hydrochloric acid solution, and then the artificial gastric fluid solution was diluted with water to 1000 ml.
Blank artificial intestinal fluid: potassium dihydrogen phosphate (6.8 g) was diluted with 500 ml of water, and shaken until dissolved. The pH was adjusted to 6.8 with 0.1 mol/L sodium hydroxide solution, and the solution was diluted with water to 1000 ml. […]
The test tube containing the drug concentration was incubated in a constant temperature water bath at 37°C. Each sample was obtained at 0, 0.5, 1.0, 1.5, 2.0, and 3.0 h, and the drug concentration was measured. […]
Fifty microliters of the above solution was accurately drawn at different incubation time points, and 155 μl of ice-cold methanol (1% formic acid) and 5 μl of IS solution were added. […] An appropriate amount of the supernatant was placed into the sample vial, and analyzed. […]
All samples were analyzed using the established LC‒MS/MS method, and MultiQuant 3.0 software was used for data processing. […]

Setting [5] is: 5 μg/ml, 37°C, 30 min incubation, ultrafiltration.
[6] abbreviates: 10 μg/ml, 37°C, 30 min incubation, ultrafiltration.
[7] abbreviates: 20 μg/ml, 37°C, 30 min incubation, ultrafiltration.

By fraction unbound is commonly meant the share of the substance not bound to proteins or other matrix. Read a low fraction unbound as extensive binding. For `Nc1nc2[nH]c(CC(=O)NCC(=O)N[C@@H](CCC(=O)O)C(=O)O)cc2c(=O)[nH]1` [glytrexate, (S)-2-{2-[2-(2-amino-4-oxo-4,7-dihydro-3H-pyrrolo [2,3-d]pyrimidin-6-yl)-acetylamino]-acetylamino}-pentanedioic acid], the figures for the fraction unbound at 30 min, 5 μg/ml in data set [1] (setting [5]) and in data set [2] (setting [5]) were 0.863 and 0.758, respectively. Further, the fraction unbound at 30 min, 10 μg/ml is 0.813 in data set [1] (setting [6]) and 0.754 in data set [2] (setting [6]). For the same compound, the fraction unbound at 30 min, 20 μg/ml in data set [1] (setting [7]) is 0.947; in data set [2] (setting [7]), 0.807. The fraction unbound at 30 min in data set [1] (over 5, 10 and 20 μg/ml) was over 0.7. The same compound gave a fraction unbound in data set [2] (over 5, 10 and 20 μg/ml) of about 0.75. Moreover, the “metabolic stability in human liver microsomes (in words)” value in data set [3] (up to 3 h) is recorded as “good microsomal stability”. In data set [3] (human, liver microsomes, pH 7.4, NADPH, regression of ln remaining vs incubation time, read-out: half-life (t1/2) in human liver microsomes), the half-life at 0.1 mg/ml was 1.83 h. In data set [4], the “stability in artificial gastrointestinal fluid (in words)” value was “did not remain stable”.
